From the supplement of paper PMC11208160

Test: recombinant UMI read abundance after kanamycin selection (control-corrected) (log10(CPM+1)); higher = more efficient recombination; extreme values may be limits of the assay; sequences stand for … in AGTGCAGAGAAAATCGGCCAGTTTTCTCTGCCTGCAGTCCGCATGCCGTGGGACCCCTTGGGTTCTAACCTGTTGCCTAGATTTATGCAGCGGACTGCCTTTCTCCCAAAGTGATAAACCGG…AGGTTGGTTTCACT; site = the 11-nt donor
How it was run: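 Two replicates each of selected and unselected plating were used in this pooled Escherichia coli screen of donor and donor-binding-loop pairs for the IS621 bridge recombinase. Selection was with IPTG (0.07 mM) and kanamycin. Counts of recombinant UMIs, amplified across the donor–target junction, were converted to CPM, averaged, scaled by control-derived factors and reported as log10(CPM+1).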
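Note: IS621 bridge recombinase in Escherichia coli cells against a fixed T5 target plasmid.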

Question: Which “recombinant UMI read abundance (log10)” value does the source give for “AGGCACGCATGGACCGGTTTTCCCGGTAATCCGTATTTGGG (site ACGCACGCTCC)” here?
Answer: 0.183

Question: With “AGGCACGCATGGACCGGTTTTCCCGGTAATCCGTATTTGGG (site AGGCACGCTCC)” as the sequence, how does the “recombinant UMI read abundance (log10)” value read?
Answer: 1.76

Question: With “AGGCACGCATGGACCGGTTTTCCCGGTAATCCGTATTTGGG (site ATGCACGCTCC)” as the sequence, how does the “recombinant UMI read abundance (log10)” value read?
Answer: 0.0107

Question: Which “recombinant UMI read abundance (log10)” value does the source give for “AGGCACTCATGGACCGGTTTTCCCGGTAATCCGTATTTGCA (site AGGCACTCTTG)” here?
Answer: 2.66

Question: With “AGGCGAGCATGGACCGGTTTTCCCGGTAATCCGTATTTGCG (site AGGCGAGCTCG)” as the sequence, how does the “recombinant UMI read abundance (log10)” value read?
Answer: 2.02

Question: Which “recombinant UMI read abundance (log10)” value does the source give for “AGGCGTGCATGGACCGGTTTTCCCGGTAATCCGTATTTGGA (site AGGCGTGCTTC)” here?
Answer: 0.745

Question: For “AGGCTAGCATGGACCGGTTTTCCCGGTAATCCGTATTTGTT (site AGACTAGCTAA)”, which “recombinant UMI read abundance (log10)” value is on record?
Answer: 0.334

Question: For “AGGCTAGCATGGACCGGTTTTCCCGGTAATCCGTATTTGTT (site AGCCTAGCTAA)”, which “recombinant UMI read abundance (log10)” value is on record?
Answer: 0.017

Question: Which “recombinant UMI read abundance (log10)” value does the source give for “AGGCTAGCATGGACCGGTTTTCCCGGTAATCCGTATTTGTT (site AGGCTAGCTAA)” here?
Answer: 0.779

Question: For “AGGCTAGCATGGACCGGTTTTCCCGGTAATCCGTATTTGTT (site AGTCTAGCTAA)”, which “recombinant UMI read abundance (log10)” value is on record?
Answer: 0.0182

Question: With “AGGCTGGCATGGACCGGTTTTCCCGGTAATCCGTATTTGTC (site AGGCTGGCTGA)” as the sequence, how does the “recombinant UMI read abundance (log10)” value read?
Answer: 0

Question: Which “recombinant UMI read abundance (log10)” value does the source give for “AGGGAAACATGGACCGGTTTTCCCGGTAATCCGTATTTGCA (site AGGAAGACTTG)” here?
Answer: 0.301

Question: For “AGGGAAACATGGACCGGTTTTCCCGGTAATCCGTATTTGCA (site AGGGAAACTTG)”, which “recombinant UMI read abundance (log10)” value is on record?
Answer: 1.42

Question: With “AGGGAACCATGGACCGGTTTTCCCGGTAATCCGTATTTGAT (site AGGGAACCTAT)” as the sequence, how does the “recombinant UMI read abundance (log10)” value read?
Answer: 0

Question: With “AGGGAACCATGGACCGGTTTTCCCGGTAATCCGTATTTGAT (site CGGGAACCTAT)” as the sequence, how does the “recombinant UMI read abundance (log10)” value read?
Answer: 0

Question: For “AGGGAACCATGGACCGGTTTTCCCGGTAATCCGTATTTGAT (site GGGGAACCTAT)”, which “recombinant UMI read abundance (log10)” value is on record?
Answer: 0

Question: With “AGGGAACCATGGACCGGTTTTCCCGGTAATCCGTATTTGAT (site TGGGAACCTAT)” as the sequence, how does the “recombinant UMI read abundance (log10)” value read?
Answer: 0

Question: With “AGGGAGACATGGACCGGTTTTCCCGGTAATCCGTATTTGCC (site AGGGAGACTGG)” as the sequence, how does the “recombinant UMI read abundance (log10)” value read?
Answer: 1.26

Question: With “AGGGAGACATGGACCGGTTTTCCCGGTAATCCGTATTTGCG (site AGGAAGACTTG)” as the sequence, how does the “recombinant UMI read abundance (log10)” value read?
Answer: 0.64

Question: Which “recombinant UMI read abundance (log10)” value does the source give for “AGGGAGACATGGACCGGTTTTCCCGGTAATCCGTATTTGCG (site AGGGAGACTCG)” here?
Answer: 1.54

Question: For “AGGGAGCCATGGACCGGTTTTCCCGGTAATCCGTATTTGCC (site AGGGAGCCTGG)”, which “recombinant UMI read abundance (log10)” value is on record?
Answer: 0

Question: For “AGGGCTACATGGACCGGTTTTCCCGGTAATCCGTATTTGAC (site AGGACTACTGT)”, which “recombinant UMI read abundance (log10)” value is on record?
Answer: 1.24

Question: Which “recombinant UMI read abundance (log10)” value does the source give for “AGGGCTACATGGACCGGTTTTCCCGGTAATCCGTATTTGAC (site AGGCCTACTGT)” here?
Answer: 0

Question: Which “recombinant UMI read abundance (log10)” value does the source give for “AGGGCTACATGGACCGGTTTTCCCGGTAATCCGTATTTGAC (site AGGGCTACTGT)” here?
Answer: 2.55

Question: Which “recombinant UMI read abundance (log10)” value does the source give for “AGGGCTACATGGACCGGTTTTCCCGGTAATCCGTATTTGAC (site AGGTCTACTGT)” here?
Answer: 1

Question: Which “recombinant UMI read abundance (log10)” value does the source give for “AGGGTCCCATGGACCGGTTTTCCCGGTAATCCGTATTTGTC (site AGGGTCCCTGA)” here?
Answer: 0.534

Question: For “AGGTAAACATGGACCGGTTTTCCCGGTAATCCGTATTTGAG (site AGGTAAACTCT)”, which “recombinant UMI read abundance (log10)” value is on record?
Answer: 2.07

Question: With “AGGTAGACATGGACCGGTTTTCCCGGTAATCCGTATTTGCC (site AGGAAGACTTG)” as the sequence, how does the “recombinant UMI read abundance (log10)” value read?
Answer: 0

Question: Which “recombinant UMI read abundance (log10)” value does the source give for “AGGTAGACATGGACCGGTTTTCCCGGTAATCCGTATTTGCC (site AGGTAGACTGG)” here?
Answer: 2.79

Question: For “AGGTAGGCATGGACCGGTTTTCCCGGTAATCCGTATTTGTT (site AGGTAGGCTAA)”, which “recombinant UMI read abundance (log10)” value is on record?
Answer: 1.94

Question: With “AGGTATCCATGGACCGGTTTTCCCGGTAATCCGTATTTGTC (site AGGTATCCTGA)” as the sequence, how does the “recombinant UMI read abundance (log10)” value read?
Answer: 0.494

Question: For “AGGTCAGCATGGACCGGTTTTCCCGGTAATCCGTATTTGAT (site AGGTCAGCTAT)”, which “recombinant UMI read abundance (log10)” value is on record?
Answer: 1.84

Question: For “AGGTCTACATGGACCGGTTTTCCCGGTAATCCGTATTTGAC (site AGGACTACTGT)”, which “recombinant UMI read abundance (log10)” value is on record?
Answer: 0

Question: Which “recombinant UMI read abundance (log10)” value does the source give for “AGGTCTACATGGACCGGTTTTCCCGGTAATCCGTATTTGAC (site AGGCCTACTGT)” here?
Answer: 2.1

Question: Which “recombinant UMI read abundance (log10)” value does the source give for “AGGTCTACATGGACCGGTTTTCCCGGTAATCCGTATTTGAC (site AGGGCTACTGT)” here?
Answer: 0.00558

Question: With “AGGTCTACATGGACCGGTTTTCCCGGTAATCCGTATTTGAC (site AGGTCTACTGT)” as the sequence, how does the “recombinant UMI read abundance (log10)” value read?
Answer: 1.18

Question: For “AGGTGCCCATGGACCGGTTTTCCCGGTAATCCGTATTTGGA (site AGGTGCCCTTC)”, which “recombinant UMI read abundance (log10)” value is on record?
Answer: 0.00688

Question: For “AGGTGGGCATGGACCGGTTTTCCCGGTAATCCGTATTTGTG (site AGGTGGGCTCA)”, which “recombinant UMI read abundance (log10)” value is on record?
Answer: 1.56

Question: For “AGGTTAGCATGGACCGGTTTTCCCGGTAATCCGTATTTGAG (site AGGTTAGCTCT)”, which “recombinant UMI read abundance (log10)” value is on record?
Answer: 1.94

Question: For “AGGTTCCCATGGACCGGTTTTCCCGGTAATCCGTATTTGTA (site AGGTTCCCTAA)”, which “recombinant UMI read abundance (log10)” value is on record?
Answer: 0.0166

Question: With “AGGTTCCCATGGACCGGTTTTCCCGGTAATCCGTATTTGTA (site AGGTTCCCTCA)” as the sequence, how does the “recombinant UMI read abundance (log10)” value read?
Answer: 0.0195

Question: For “AGGTTCCCATGGACCGGTTTTCCCGGTAATCCGTATTTGTA (site AGGTTCCCTGA)”, which “recombinant UMI read abundance (log10)” value is on record?
Answer: 0

Question: Which “recombinant UMI read abundance (log10)” value does the source give for “AGGTTCCCATGGACCGGTTTTCCCGGTAATCCGTATTTGTA (site AGGTTCCCTTA)” here?
Answer: 1.5

Question: For “AGGTTGCCATGGACCGGTTTTCCCGGTAATCCGTATTTGTG (site AGGTTACCTCA)”, which “recombinant UMI read abundance (log10)” value is on record?
Answer: 0.00238

Question: Which “recombinant UMI read abundance (log10)” value does the source give for “AGGTTGCCATGGACCGGTTTTCCCGGTAATCCGTATTTGTG (site AGGTTCCCTCA)” here?
Answer: 0.00991

Question: Which “recombinant UMI read abundance (log10)” value does the source give for “AGGTTGCCATGGACCGGTTTTCCCGGTAATCCGTATTTGTG (site AGGTTGCCTCA)” here?
Answer: 0.00688

Question: With “AGGTTGCCATGGACCGGTTTTCCCGGTAATCCGTATTTGTG (site AGGTTTCCTCA)” as the sequence, how does the “recombinant UMI read abundance (log10)” value read?
Answer: 0.00563

Question: For “AGTAATGCATGGACCGGTTTTCCCGGTAATCCGTATTTGAG (site AGTAATGCTCT)”, which “recombinant UMI read abundance (log10)” value is on record?
Answer: 2.15

Question: With “AGTACACCATGGACCGGTTTTCCCGGTAATCCGTATTTGAC (site AGTACACCTGT)” as the sequence, how does the “recombinant UMI read abundance (log10)” value read?
Answer: 0

Question: For “AGTACACCATGGACCGGTTTTCCCGGTAATCCGTATTTGAC (site CGTACACCTGT)”, which “recombinant UMI read abundance (log10)” value is on record?
Answer: 0.0138

Question: With “AGTACACCATGGACCGGTTTTCCCGGTAATCCGTATTTGAC (site GGTACACCTGT)” as the sequence, how does the “recombinant UMI read abundance (log10)” value read?
Answer: 0

Question: With “AGTACACCATGGACCGGTTTTCCCGGTAATCCGTATTTGAC (site TGTACACCTGT)” as the sequence, how does the “recombinant UMI read abundance (log10)” value read?
Answer: 0
